Source: PubChem BioAssay (NCI)
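1) Cells in 96-well plates. 2) Compound, 48 h, 5 concentrations. 3) Linear interpolation between surrounding doses. 4) Unreached endpoint = highest concentration. The concentration for full growth arrest is given as TGI.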

Tests used:
Test in all cases: NCI anticancer screen, dose series, 48 h
LOX IMVI melanoma = tested on: LOX IMVI melanoma
T-47D breast = tested on: T-47D breast
NCI-H226 lung = tested on: NCI-H226 lung
HCT-15 colon = tested on: HCT-15 colon
HT29 colon = tested on: HT29 colon
SF-295 CNS = tested on: SF-295 CNS
NCI/ADR-RES ovarian = tested on: NCI/ADR-RES ovarian
M14 melanoma = tested on: M14 melanoma
A498 renal = tested on: A498 renal
UACC-257 melanoma = tested on: UACC-257 melanoma
OVCAR-4 ovarian = tested on: OVCAR-4 ovarian
HOP-62 NSCLC = tested on: HOP-62 NSCLC
MCF7 breast = tested on: MCF7 breast
KM12 colon = tested on: KM12 colon
K-562 leukemia = tested on: K-562 leukemia
786-0 renal = tested on: 786-0 renal
SK-MEL-2 melanoma = tested on: SK-MEL-2 melanoma
NCI-H460 lung = tested on: NCI-H460 lung

NCc1ccc(-c2ccc(CN)s2)s1
TGI (LOX IMVI melanoma): > 100 µM
TGI (T-47D breast): > 100 µM
TGI (NCI-H226 lung): > 100 µM
TGI (HCT-15 colon): > 100 µM
TGI (HT29 colon): > 100 µM
TGI (SF-295 CNS): > 100 µM
TGI (NCI/ADR-RES ovarian): 83.6 µM
TGI (M14 melanoma): > 100 µM
TGI (A498 renal): 23.1 µM
TGI (UACC-257 melanoma): > 100 µM
TGI (OVCAR-4 ovarian): > 100 µM
TGI (HOP-62 NSCLC): > 100 µM
TGI (MCF7 breast): > 100 µM
TGI (KM12 colon): > 100 µM
TGI (K-562 leukemia): > 100 µM
TGI (786-0 renal): > 100 µM
TGI (SK-MEL-2 melanoma): > 100 µM

O=C(CC(O)(C(F)(F)F)C(F)(F)F)C(c1ccccc1)C(O)(C(F)(F)F)C(F)(F)F (stereo not drawn)
TGI (LOX IMVI melanoma): > 100 µM
TGI (T-47D breast): > 100 µM
TGI (NCI-H226 lung): > 100 µM
TGI (HCT-15 colon): > 100 µM
TGI (HT29 colon): > 100 µM
TGI (NCI-H460 lung): > 100 µM
TGI (SF-295 CNS): > 100 µM
TGI (NCI/ADR-RES ovarian): > 100 µM
TGI (M14 melanoma): > 100 µM
TGI (A498 renal): > 100 µM
TGI (UACC-257 melanoma): > 100 µM
TGI (OVCAR-4 ovarian): > 100 µM
TGI (MCF7 breast): > 100 µM
TGI (KM12 colon): > 100 µM
TGI (K-562 leukemia): > 100 µM
TGI (786-0 renal): > 100 µM
TGI (SK-MEL-2 melanoma): > 100 µM

CC(=O)Nc1ccc(-c2nc3ccccc3s2)cc1Br
TGI (LOX IMVI melanoma): > 100 µM
TGI (T-47D breast): > 100 µM
TGI (NCI-H226 lung): > 94.7 µM
TGI (HCT-15 colon): > 100 µM
TGI (HT29 colon): > 100 µM
TGI (NCI-H460 lung): > 100 µM
TGI (SF-295 CNS): > 100 µM
TGI (NCI/ADR-RES ovarian): > 100 µM
TGI (M14 melanoma): > 100 µM
TGI (A498 renal): 32.1 µM
TGI (UACC-257 melanoma): > 100 µM
TGI (OVCAR-4 ovarian): > 100 µM
TGI (HOP-62 NSCLC): 56.7 µM
TGI (MCF7 breast): > 100 µM
TGI (KM12 colon): > 100 µM
TGI (K-562 leukemia): > 100 µM
TGI (786-0 renal): > 100 µM
TGI (SK-MEL-2 melanoma): > 100 µM

Cc1cccc(N/C(=C(/C(Cl)=C(Cl)Cl)[N+](=O)[O-])n2nnc3ccccc32)c1
TGI (T-47D breast): 56 µM
TGI (NCI-H226 lung): 26.6 µM
TGI (HCT-15 colon): 42.3 µM
TGI (HT29 colon): 33.3 µM
TGI (NCI-H460 lung): 45.1 µM
TGI (SF-295 CNS): 32 µM
TGI (NCI/ADR-RES ovarian): 49.4 µM
TGI (M14 melanoma): 47.5 µM
TGI (A498 renal): 25 µM
TGI (UACC-257 melanoma): 49.3 µM
TGI (OVCAR-4 ovarian): 39.5 µM
TGI (HOP-62 NSCLC): 33.3 µM
TGI (MCF7 breast): 50 µM
TGI (KM12 colon): 29.3 µM
TGI (K-562 leukemia): > 100 µM
TGI (786-0 renal): 35.7 µM
TGI (SK-MEL-2 melanoma): 36.3 µM

CC(C)CCCC(C)[C@H]1CC[C@H]2n3c(nnc3-c3ccccc3)CCC[C@]12C (stereo partly drawn)
TGI (LOX IMVI melanoma): 12.5 µM
TGI (T-47D breast): 37.4 µM
TGI (NCI-H226 lung): 37.5 µM
TGI (HCT-15 colon): 68.9 µM
TGI (HT29 colon): 60.5 µM
TGI (NCI-H460 lung): 24.1 µM
TGI (SF-295 CNS): 21.9 µM
TGI (NCI/ADR-RES ovarian): 24 µM
TGI (M14 melanoma): 30.1 µM
TGI (A498 renal): 31.8 µM
TGI (UACC-257 melanoma): 26.9 µM
TGI (OVCAR-4 ovarian): 32.5 µM
TGI (HOP-62 NSCLC): 37.5 µM
TGI (MCF7 breast): 20.7 µM
TGI (KM12 colon): > 100 µM
TGI (K-562 leukemia): 13.6 µM
TGI (786-0 renal): 34.8 µM
TGI (SK-MEL-2 melanoma): 29.8 µM

COc1ccc(CC2Cc3ccccc3CCN2)cc1OC (stereo not drawn)
TGI (LOX IMVI melanoma): > 50 µM
TGI (T-47D breast): > 50 µM
TGI (NCI-H226 lung): > 50 µM
TGI (HCT-15 colon): > 50 µM
TGI (HT29 colon): > 50 µM
TGI (NCI-H460 lung): > 50 µM
TGI (SF-295 CNS): > 50 µM
TGI (NCI/ADR-RES ovarian): > 50 µM
TGI (M14 melanoma): > 50 µM
TGI (A498 renal): > 50 µM
TGI (UACC-257 melanoma): > 50 µM
TGI (OVCAR-4 ovarian): > 50 µM
TGI (HOP-62 NSCLC): > 50 µM
TGI (MCF7 breast): > 50 µM
TGI (KM12 colon): > 50 µM
TGI (K-562 leukemia): > 50 µM
TGI (786-0 renal): > 50 µM
TGI (SK-MEL-2 melanoma): > 50 µM

Cc1sc2nc(N(C)C)oc(=O)c2c1C
TGI (LOX IMVI melanoma): > 100 µM
TGI (T-47D breast): > 100 µM
TGI (NCI-H226 lung): > 100 µM
TGI (HCT-15 colon): > 100 µM
TGI (HT29 colon): > 100 µM
TGI (NCI-H460 lung): > 100 µM
TGI (SF-295 CNS): > 100 µM
TGI (NCI/ADR-RES ovarian): > 100 µM
TGI (M14 melanoma): > 100 µM
TGI (A498 renal): > 100 µM
TGI (UACC-257 melanoma): > 100 µM
TGI (OVCAR-4 ovarian): > 100 µM
TGI (HOP-62 NSCLC): > 100 µM
TGI (MCF7 breast): > 100 µM
TGI (KM12 colon): > 100 µM
TGI (K-562 leukemia): > 100 µM
TGI (786-0 renal): > 100 µM
TGI (SK-MEL-2 melanoma): > 100 µM

C[C@]12CC[C@H]3[C@@H](CCC4=CC(=O)CC[C@@H]43)[C@@H]1CC[C@]2(O)C(N)=O
TGI (LOX IMVI melanoma): > 100 µM
TGI (T-47D breast): > 100 µM
TGI (NCI-H226 lung): > 100 µM
TGI (HCT-15 colon): > 100 µM
TGI (HT29 colon): > 100 µM
TGI (NCI-H460 lung): > 100 µM
TGI (SF-295 CNS): > 100 µM
TGI (NCI/ADR-RES ovarian): > 100 µM
TGI (M14 melanoma): > 100 µM
TGI (A498 renal): > 100 µM
TGI (UACC-257 melanoma): > 100 µM
TGI (OVCAR-4 ovarian): > 100 µM
TGI (HOP-62 NSCLC): > 100 µM
TGI (MCF7 breast): > 100 µM
TGI (KM12 colon): > 100 µM
TGI (K-562 leukemia): > 100 µM
TGI (786-0 renal): > 100 µM
TGI (SK-MEL-2 melanoma): > 100 µM

CC[C@]12C=CCN3CC[C@@]4(c5cc(Br)c(OC)c([N+](=O)[O-])c5N(C)[C@H]4[C@@](O)(C(=O)OC)[C@@H]1OC(C)=O)[C@@H]32
TGI (LOX IMVI melanoma): > 100 µM
TGI (T-47D breast): > 100 µM
TGI (NCI-H226 lung): > 100 µM
TGI (HCT-15 colon): > 100 µM
TGI (HT29 colon): > 100 µM
TGI (NCI-H460 lung): > 100 µM
TGI (SF-295 CNS): > 100 µM
TGI (NCI/ADR-RES ovarian): > 100 µM
TGI (M14 melanoma): > 100 µM
TGI (A498 renal): > 100 µM
TGI (UACC-257 melanoma): > 100 µM
TGI (OVCAR-4 ovarian): > 100 µM
TGI (HOP-62 NSCLC): > 100 µM
TGI (MCF7 breast): > 100 µM
TGI (KM12 colon): > 100 µM
TGI (K-562 leukemia): > 100 µM
TGI (786-0 renal): > 100 µM
TGI (SK-MEL-2 melanoma): > 100 µM

COC(=O)c1ccccc1/C=C1\Cc2c(ccc3c2CCC3)C1=O
TGI (LOX IMVI melanoma): > 100 µM
TGI (T-47D breast): > 100 µM
TGI (NCI-H226 lung): > 100 µM
TGI (HCT-15 colon): > 100 µM
TGI (HT29 colon): > 100 µM
TGI (NCI-H460 lung): > 100 µM
TGI (SF-295 CNS): > 100 µM
TGI (NCI/ADR-RES ovarian): > 100 µM
TGI (M14 melanoma): > 100 µM
TGI (A498 renal): > 100 µM
TGI (UACC-257 melanoma): > 100 µM
TGI (OVCAR-4 ovarian): > 100 µM
TGI (HOP-62 NSCLC): > 100 µM
TGI (MCF7 breast): > 100 µM
TGI (KM12 colon): > 100 µM
TGI (K-562 leukemia): > 100 µM
TGI (786-0 renal): > 100 µM
TGI (SK-MEL-2 melanoma): > 100 µM

CN1CCC23c4c5ccc(Oc6nnnn6-c6ccccc6)c4OC2c2[nH]c4ccccc4c2CC3(O)C1C5 (stereo not drawn)
TGI (LOX IMVI melanoma): 3.75 µM
TGI (T-47D breast): 23.1 µM
TGI (NCI-H226 lung): 27.6 µM
TGI (HCT-15 colon): 6.36 µM
TGI (HT29 colon): 5.3 µM
TGI (NCI-H460 lung): 3.66 µM
TGI (SF-295 CNS): 15.3 µM
TGI (NCI/ADR-RES ovarian): 19.7 µM
TGI (M14 melanoma): 3.38 µM
TGI (A498 renal): 6.3 µM
TGI (UACC-257 melanoma): 3.32 µM
TGI (OVCAR-4 ovarian): 7.53 µM
TGI (HOP-62 NSCLC): 12.8 µM
TGI (MCF7 breast): 5.12 µM
TGI (KM12 colon): 7.68 µM
TGI (K-562 leukemia): 3.86 µM
TGI (786-0 renal): 3.33 µM
TGI (SK-MEL-2 melanoma): 3.28 µM

CC(=O)OCC1OC(NC(=S)Nn2c(=O)[nH]c3ccccc3c2=O)C(OC(C)=O)C(OC(C)=O)C1OC(C)=O (stereo not drawn)
TGI (LOX IMVI melanoma): > 100 µM
TGI (T-47D breast): > 100 µM
TGI (NCI-H226 lung): > 100 µM
TGI (HCT-15 colon): > 100 µM
TGI (HT29 colon): > 100 µM
TGI (NCI-H460 lung): > 100 µM
TGI (SF-295 CNS): > 100 µM
TGI (NCI/ADR-RES ovarian): > 100 µM
TGI (M14 melanoma): > 100 µM
TGI (A498 renal): > 100 µM
TGI (UACC-257 melanoma): > 100 µM
TGI (HOP-62 NSCLC): > 100 µM
TGI (MCF7 breast): > 100 µM
TGI (KM12 colon): > 100 µM
TGI (786-0 renal): > 100 µM
TGI (SK-MEL-2 melanoma): > 100 µM

CC[C@@]1(O)C(=O)OCc2c1cc1n(c2=O)Cc2c-1nc1ccccc1c2/C=N\NC(=O)C[n+]1ccccc1
TGI (LOX IMVI melanoma): 6 µM
TGI (T-47D breast): 2.9 µM
TGI (NCI-H226 lung): > 29.7 µM
TGI (HCT-15 colon): > 100 µM
TGI (HT29 colon): > 66.3 µM
TGI (NCI-H460 lung): 9.75 µM
TGI (SF-295 CNS): > 21.3 µM
TGI (NCI/ADR-RES ovarian): > 100 µM
TGI (M14 melanoma): 6.37 µM
TGI (A498 renal): 21.4 µM
TGI (UACC-257 melanoma): > 84.5 µM
TGI (OVCAR-4 ovarian): > 100 µM
TGI (MCF7 breast): 16.2 µM
TGI (KM12 colon): > 100 µM
TGI (K-562 leukemia): > 100 µM
TGI (786-0 renal): > 27.8 µM
TGI (SK-MEL-2 melanoma): > 89.6 µM
